# In PMC11246197 (Journal of medicinal chemistry, 2024):
# System: SARS-CoV-2 Omicron variant BA.1
# Type: cell-based
# Settings: read-out: EC50 against SARS-CoV-2 Omicron variant BA.1
structure (smiles),measurement,value
CC(C)OC(=O)[C@H](C)N[P@](=O)(OC[C@H]1O[C@@](C#N)(c2ccc3c(N)ncnn23)[C@H](O)[C@@H]1O)Oc1ccccc1 [IsoRDV],EC50,0.54 µM
